The source of these data is patent US9623031B2, “Compositions, methods and kits for treating cancer” (priority 2011, dated 2017).

The test system of experiment [1] is murine erythroleukemia (MEL) cells. Nature of the experiment: MEL cell apoptosis and viability (MTT, CCK-8). In kind it is cell-based, mouse. The note with it: anti-leukemic drugs 1 μM, nutlin 5 μM, 24 h, MTT/CCK-8. As to the method:
Cell culture. Murine erythroleukemia (MEL) cells were cultured in DMEM with 10% FBS. In order to examine the production 3-series PGs, BALB/c-derived RAW264.7 macrophage-like cells (ATCC) were cultured in DMEM containing 5% FBS, 250 nM sodium selenite, and 50 μM EPA (as BSA conjugate) for 72 h followed by stimulation with E. coli endotoxin lipopolysaccharide (LPS; Serotype 0111B4; 50 ng/ml) for 30 min. The cells were cultured in fresh DMEM for an additional 24-144 h. Cells cultured with cell culture-grade fatty acid free BSA (Sigma Aldrich) served as a control. Culture media was withdrawn at various times and analyzed for 3-series PGs as described below. Total RNA was isolated from cells or tissues using Trizol reagent as per the instructions of the supplier (Invitrogen, Carlsbad, Calif.) and cDNA was prepared using a High Capacity cDNA Reverse Transcriptase kit (Applied Biosystems, Foster City, Calif.). Semiquantitative RT-PCR for p53 and β-actin was performed with primers as described in Supplementary Methods. Nuclear and cytoplasmic protein extracts of LSCs were prepared using standard methods previously described (Vunta H et al., J Biol Chem. 2007; 282:17964-17973).
Cell viability studies. MEL cells were cultured in DMEM containing 10% FBS and treated with various commonly used anti-leukemic drugs such as daunorubicin (DNR), mitoxantrone (MIT), and cytarabine (CYT) at a final concentration […] for 24 h. […] After 24 h of drug treatment, cell proliferation was measured by MTT assay with CCK-8 kit from Dojindo Molecular Technologies, Inc. (Gaithersburg, Md.). All viability values reported are relative to untreated cells (UT) that was designated to be 100%. Results represent the mean±SEM of three independent observations.
In order to address whether MEL cells are resistant in general to chemotherapy agents, we tested whether MEL cells can be killed by apoptosis when treated with standard anti-leukemia drugs. Treatment with various commonly used anti-leukemic drugs such as daunorubicin (DNR), mitoxantrone (MIT), and cytarabine (CYT) at a final concentration 1 μM for 24 h. […] After 24 h of drug treatment, cell proliferation was measured by MTT assay with CCK-8 kit from Dojindo Molecular Technologies, Inc. (Gaithersburg, Md.). […] The results represent the mean±SEM of three independent observations.

The subject of experiment [2] is FV-LSCs (M34^+Kit^+Sca1^+). Briefly: Apoptosis of FV-LSCs treated ex vivo (annexin V, flow cytometry). The format is cell-based, mouse. Conditions: 25 nM, 36 h; for apoptosis of FV-LSCs: annexin V.
Procedure: On day 14 after infection, spleens were isolated and a single cell suspension of spleen cells was generated. The cells were filtered through a 70 μm sterile filter and flow-through cells were resuspended in RBC lysis buffer followed by centrifugation. Leukemia stem cells were isolated by FACS. Spleen cells were labeled with anti-Kit, Sca1 (BioLegend, San Diego, Calif.) and M34 antibodies. […] As indicated M34^+Kit^+Sca1^+ cells were cultured in Methocult media (Stem Cell Technologies Vancouver BC) M3334 supplemented with 200 ng/ml Sonic Hedgehog (Shh), 15 ng/ml bone morphogenetic protein-4 (BMP4) (both from R&D Systems Minneapolis, Minn.), and 50 ng/ml stem cell factor (SCF; Peprotech).
The cells were stained with annexin V-FITC and analyzed by flow cytometry. […] Means±s.e.m. *P<0.001 compared to vehicle (PBS). […] Inset: Effect of rosiglitazone on the apoptosis of LSC. Rosiglitazone (0.1-2.0 μM) was incubated with LSC in the culture media for 36 h as described earlier and the cells were subjected to annexin-V staining followed by flow cytometry. […] LSC were treated ex vivo with indicated concentrations of each compound for 36 h. Mean±s.e.m. shown *P<0.001.
Experiment [3] has as its system FV-LSCs transplanted into BALB/c-Stk^−/− mice.
Procedure: Transplant of FV-LSCs into BALB/c-Stk^−/− mice: FV-LSCs were generated as described above. 2.5×10^5 FV-LSCs were transplanted into BALB/c-Stk^−/− mice by retro-orbital injection. Six weeks after transplant the mice were treated with CyPGs or vehicle control as indicated in the text.
Treatment of Mice with PGs: Mice with FV-induced erythroleukemia or MIGR-BCR-ABL induced CML were treated on the indicated days with CyPGs. Mice were treated with a daily intraperitoneal injection of Δ^12-PGJ3 (0.01-0.1 mg/kg), 15d-PGJ2 (0.1 mg/kg), or 9,10-dihydro-15d-PGJ2 (0.1 mg/kg) for 7 days. All three compounds were formulated with hydroxypropyl-β-cyclodextrin (30% w/v; Sigma; vehicle control).
Stk^−/− mice are resistant to Friend virus infection so the leukemia developed by the transplanted mice is result of the transplanted LSCs and not FV infection. […] LSCs sorted from the spleens of FV-infected mice were transplanted into Stk^−/− mice (on a Balb/c background). After 6 weeks such mice were treated daily for 1 week with vehicle (hydroxypropyl-β-cyclodextrin), 15d-PGJ2 (0.05 mg/kg), or 9,10-dihydro-15d-PGJ2 (0.05 mg/kg) by intraperitoneal injection. The mice were sacrificed 51 days post LSC transplantation for analysis. An analysis of spleens of mice comparing splenomegaly in vehicle, 15d-PGJ2, or 9,10-dihydro-15d-PGJ2 treated transplanted mice was performed. Spleen weight compared to control (untransplanted mice) after treatment and WBC counts in the peripheral blood of the mice after treatment were examined, and a flow cytometric analysis of the spleen of untransplanted and LSC transplanted mice after treatment was performed. All data were mean±s.e.m. *p<0.05 compared to control or 9,10-dihydro-15d-PGJ2 treated groups. N=5 per group.
The subject of experiment [4] is BCR-ABL^+LSC (Kit^+Sca1^+Lin^−GFP^+). Nature of the experiment: Apoptosis of BCR-ABL+ LSCs treated ex vivo (annexin V, flow cytometry). The format is cell-based, mouse. Conditions: for apoptosis of Sca1+GFP+Kit+ BCR-ABL+LSC from spleen: 25-1000 nM, 36 h. As to the method:
Apoptosis. Apoptosis of LSCs was performed using annexin V as described below in Supplementary Information and Methods.
Apoptosis. The LSCs were diluted in DMEM, resuspended using a 16-gauge needle, and collected by centrifugation. 1×10^5 cells were resuspended in 200 μl of binding buffer (0.1 M HEPES with 1.4 M NaCl, 25 mM CaCl2, pH 7.4). Annexin V FITC (BD Biosciences) was incubated with cells for 15 min on ice followed by flow cytometric analysis.
The ability of CyPGs derived from arachidonic acid (2 series PGs) to induce apoptosis was tested in cultures of LSCs from FV infected mice and in the murine CML model. […] 15d-PGJ2 is known as a PPAPγ agonist. […] In FIG. 7C Δ^12-PGJ3, 15d-PGJ2 or 9,10-dihydro-15d-PGJ2 are tested for their ability to induce apoptosis in a murine CML model. […] The cells were stained with annexin V-FITC and analyzed by flow cytometry. Representative of N=4. […] Inset: Effect of rosiglitazone on the apoptosis of LSC. Rosiglitazone (0.1-2.0 μM) was incubated with LSC in the culture media for 36 h as described earlier and the cells were subjected to annexin-V staining followed by flow cytometry. […] LSC were treated ex vivo with indicated concentrations of each compound for 36 h.
Following 36 h of incubation, apoptotic cells were quantified by annexin V staining. […] In a related study to address if Δ^12-PGJ3 treatment would cause any degranulation of granulocytes, a rat basophilic cell line ([…]) was treated with 100 nM Δ^12-PGJ3 and the degranulation was followed by quantitating the release of histamine and a second marker of degranulation, hexoseaminidase.
In this experiment, 500,000 BCR-ABL+ LSCs were plated in a 24-well plate followed and were treated with 25 nM PGD2Me or 100 nM ZK118182 (both are agonists of DP) for 24 h. GFP^+ cells were analyzed by flow cytometry. These agonists were purchased from Cayman Chemicals, MI.
(A flow cytometer gives signals particle by particle.)

For experiment [5], the system named is Friend virus (FV)-induced erythroleukemia. Briefly: FV-induced erythroleukemia in FV-infected mice, intraperitoneal treatment. In kind it is in vivo, mouse. An excerpt:
FV-induced erythroleukemia and production of FV leukemia stem cells (FV-LSCs): BALB/c mice were infected with FV as previously described (Subramanian A et al., J Virol. 2008; 82:382-393; Harandi O F et al., J Clin Invest. 2010; 120:4507-4519). On day 14 after infection, spleens were isolated and a single cell suspension of spleen cells was generated. The cells were filtered through a 70 μm sterile filter and flow-through cells were resuspended in RBC lysis buffer followed by centrifugation. Leukemia stem cells were isolated by FACS. Spleen cells were labeled with anti-Kit, Sca1 (BioLegend, San Diego, Calif.) and M34 antibodies. M34 is a monoclonal antibody that recognizes the envelope protein of SFFV (Chesebro B et al., Virology. 1981; 112:131-144) and was used as previously described (Subramanian A et al., J Virol. 2008; 82:382-393). As indicated M34^+Kit^+Sca1^+ cells were cultured in Methocult media (Stem Cell Technologies Vancouver BC) M3334 supplemented with 200 ng/ml Sonic Hedgehog (Shh), 15 ng/ml bone morphogenetic protein-4 (BMP4) (both from R&D Systems Minneapolis, Minn.), and 50 ng/ml stem cell factor (SCF; Peprotech). For CFU-FV assays, cells were plated in methylcellulose media containing fetal calf serum, but lacking added growth factors as previously described (Mager D L et al., Proc Natl Acad Sci USA. 1981; 78:1703-1707).
Complete blood counts of mice treated with Δ^12-PGJ3 (0.05 mg/kg) were examined. There is no difference in treated mice and untransplanted control mice in terms of white blood cell counts, red blood cell counts or platelet counts. Changes in hematological parameters in FV-infected mice upon treatment with CyPGs were examined. FV-infected Balb/c mice were treated with Δ^12-PGJ3 (0.05 mg/kg) intraperitoneally for 7 d following which the mice were sacrificed and hematological parameters were analyzed on an Advia blood analyzer. FV-infected Δ^12-PGJ3 treated mice were compared to infected vehicle controls. N=5 per group, all data are means±s.e.m. *P<0.05. 3% w/v hydroxypropyl-3-cyclodextrin was used as a vehicle in in vivo experiments. Spleen sizes of FV-infected mice that were treated with either vehicle, 9,10-dihydro-15d-PGJ2 (0.05 mg/kg), or 15d-PGJ2 (0.05 mg/kg) were examined; N=3 pre group. Hematological parameters of Balb/c uninfected, infected, and 15d-PGJ2 treated mice were examined. N=5 per group. All data were means±s.e.m. *P<0.05.
FV-LSC were targeted by 15d-PGJ2 in the spleen of FV-infected mice. FV-infected mice were treated with 15d-PGJ2 or 9,10-dihydro-15d-PGJ2 at 0.05 mg/kg for 7 d. The splenic LSC (M34^+Sca1^+Kit^+) cells were analyzed by flow cytometry on day 14 post infection. […] Uninfected and infected vehicle controls were used for comparison. N=3; *P<0.05. […] The colonies were counted 10-14 days after plating. N=3 mice per group, *p<0.05.

Experiment [6] has as its system p53. Nature of the experiment: p53 expression in FV-LSCs treated ex vivo (RT-PCR, nuclear extracts). The format is cell-based, mouse.
For experiment [7], the system named is LSCs. Nature of the experiment: Apoptosis of LSCs as summarised in the discussion (model not specified or both models). The note with it: FV-induced leukemia and BCR-ABL+ retrovirus-based murine CML model. In kind it is cell-based, mouse.

Molecules are shown by their SMILES. Entries after “also recorded” stand apart in the source; their conditions may differ.

As to `O=C1c2c(O)ccc(O)c2C(=O)c2c(NCCNCCO)ccc(NCCNCCO)c21` [mitoxantrone], the “sensitivity of MEL cells to drugs” value in experiment [1] was “caused significant apoptosis; also recorded: exhibited sensitivity”.

Consider `CCCCC/C=C/C=C1/C(=O)C=C[C@@H]1C/C=C\CCCC(=O)O` [15d-PGJ2, reference compound], for which, in experiment [2], the “apoptosis of FV-LSCs” value is “able to induce apoptosis; also recorded: Responses similar to Δ^12-PGJ3”. In addition, the “hematocrit, WBC counts and reticulocyte counts” value in experiment [3] (FV-induced leukemia, FIG. 3C) was “significantly decreased”. Further, the “LSCs (M34+Sca1+Kit+) in the spleen” value in experiment [3] (flow cytometry after 1 week i.p. treatment) is “eradication of FV LSCs in the spleen and resolution of the diseases”. The “apoptosis of Sca1+GFP+Kit+ BCR-ABL+LSC from spleen” value in experiment [4] was “active; also recorded: significantly increased their apoptosis”. Besides, in experiment [5] (0.05 mg/kg i.p. 7 d, flow cytometry day 14 post infection), the “LSCs (Sca1+Kit+M34+) in the spleen” value is “significant decrease in LSC numbers; also recorded: Identical results”. The “total leukocyte and reticulocyte counts” value in experiment [5] (i.p. 7 days) was “decreased to normal levels”. In experiment [5] (mouse, in vivo), the “Friend virus viral replication” value is “does not affect Friend virus viral replication”. In experiment [5] (spleen cells of treated mice plated without growth factors), the CFU-FV colony formation entry is “significantly decreased the number of transformed leukemia cells”.

Consider `CS(=O)(=O)c1cc(F)cc2c3c(n(Cc4ccc(Cl)cc4)c12)[C@@H](CC(=O)O)CC3` [MK0824], for which, in experiment [4] (antagonist 10 nM, 2 h pretreatment, then 25 nM Δ^12-PGJ3, 36 h), the “inhibition of Δ^12-PGJ3-induced apoptosis by DP antagonist” value was “inhibited”.

Regarding `CCCCC[C@H](O)C/C=C1/C(=O)C=C[C@@H]1C/C=C\CCCC(=O)O` [Δ^12-PGJ2], the “apoptosis of FV-LSCs” value in experiment [2] is “able to induce apoptosis; also recorded: Responses similar to Δ^12-PGJ3”. Further, the “apoptosis of Sca1+GFP+Kit+ BCR-ABL+LSC from spleen” value in experiment [4] is “active”.

For `O=C(NC(NC(=S)Nc1ccc(F)c([N+](=O)[O-])c1)C(Cl)(Cl)Cl)C(c1ccccc1)c1ccccc1` (stereo not shown) [CGK-733], in experiment [6] (preincubation, then Δ^12-PGJ3), the “block of Δ^12-PGJ3-dependent p53 expression by ATM inhibitors” value was “blocked the CyPG-dependent expression of p53”.

With `Nc1ccn([C@@H]2O[C@H](CO)[C@@H](O)[C@@H]2O)c(=O)n1` [cytarabine], the “sensitivity of MEL cells to drugs” value in experiment [1] was “caused significant apoptosis; also recorded: exhibited sensitivity”.

Take `COc1ccc(C2=NC(c3ccc(Cl)cc3)C(c3ccc(Cl)cc3)N2C(=O)N2CCNC(=O)C2)c(OC(C)C)c1` (stereo not shown) [nutlin]: the “sensitivity of MEL cells to drugs” value in experiment [1] was “not”; in experiment [1] (listed as Nutlin), “lack of activation of p53 and apoptosis”.

With `CC/C=C\C[C@H](O)/C=C/[C@H]1C(=O)C=C[C@@H]1C/C=C\CCCC(=O)O` [PGJ3, reference compound], the “increase in apoptosis of FV-LSCs” value in experiment [2] is 2 fold. The “targeting of LSCs for apoptosis” value in experiment [7] is “ineffective”.

Consider `CCCCC[C@H](O)/C=C/[C@H]1C(=O)C[C@H](O)[C@@H]1C/C=C\CCCC(=O)OC` [PGD2Me, 9α,15S-dihydroxy-11-oxo-prosta-5Z,13E-dien-1-oic acid, methyl ester], for which, in experiment [4] (25 nM PGD2Me or 100 nM ZK118182, 24 h), the “apoptosis of BCR-ABL+ LSCs by synthetic DP agonists (GFP+ cells)” value is on record as “can induce apoptosis of LSCs”.

As to `COc1cccc2c1C(=O)c1c(O)c3c(c(O)c1C2=O)C[C@@](O)(C(C)=O)C[C@@H]3O[C@H]1C[C@H](N)[C@H](O)[C@H](C)O1` [daunorubicin], in experiment [1], the “sensitivity of MEL cells to drugs” value is recorded as “caused significant apoptosis; also recorded: exhibited sensitivity”.

For the molecule `CCCCC[C@H](O)/C=C/[C@H]1C(=O)C=C[C@@H]1C/C=C\CCCC(=O)O` [PGJ2], the “apoptosis of FV-LSCs” value in experiment [2] is on record as “largely ineffective”. Also, the “p53 expression at transcript level” value in experiment [6] (10 or 25 nM, 12 h) is listed as “only a minor degree”. The “p53 expression after preincubation of compound with media” value in experiment [6] (preincubated at 37° C. for 42 h before adding LSCs) is listed as “increased expression of p53”.

Regarding `CC/C=C\C/C=C/C=C1/C(=O)C=C[C@@H]1C/C=C\CCCC(=O)O` [15d-PGJ3, reference compound], in experiment [2], the “increase in apoptosis of FV-LSCs” value is listed as about 75%. Besides, the “targeting of LSCs for apoptosis” value in experiment [7] is listed as “targeted LSCs for apoptosis”.
